Peptide text beside a SMILES is read from it. * marks the point of attachment. Cbz = O=C(OCc1ccccc1)*
Tested on: proteasome
Experiment: PARIS steady state levels in SH-SY5Y cells treated with proteasome inhibitor (immunoblot)
Assay type: cell-based, human
Conditions: for PARIS steady state level: 10 μM MG-132 vs DMSO control, normalized to β-actin
Method: Human neuroblastoma SH-SY5Y cells (ATCC, Manassas, Va.) were grown in DMEM containing 10% FBS and antibiotics in a humidified 5% CO2/95% air atmosphere at 37° C. For transient transfection, cells were transfected with indicated amounts of target vector using Lipofectamine Plus (Invitrogen), according to manufacturer's instructions. For co-immunoprecipitation from cell cultures, SH-SY5Y cells were transfected with 2 μg of each plasmid, unless otherwise indicated. For the ubiquitination assay, SH-SY5Y cells were transiently transfected with 2 μg of pRK5-Myc-tagged parkin, Myc-tagged parkin (C431F, G430D, R275W, and Q311 X) pCMV-FLAG-PARIS, and 2 μg of pMT123-HA-ubiquitin plasmids for 48 hours. For the luciferase assay SH-SY5Y cells were transiently transfected with pCMV-empty vector or pCMV-FLAG-PARIS with either wild type or Q311X parkin, or pGL3-Basic, pGL3-PGC-1α promoter-Luciferase, or pGL3-PGC-1α promoter deletion mutant (a gift from Akyoshi Fukamizu, University of Tsukuba, Japan) (Daitoku et al., 2003) for firefly Luciferase assay and 0.1 μg pRL-TK vector (Promega) for Renilla luciferase control.
The tissues including nine different organs, eight different brain regions from C57/BL6 mouse, human brain, and mouse brain were homogenized in lysis buffer [10 mM Tris-HCl, pH 7.4, 150 mM NaCl, 5 mM EDTA, 0.5% Nonidet P-40, 10 mM Na-β-glycerophosphate, […] I and II (Sigma), and Complete Protease Inhibitor Mixture (Roche)], using a Diax 900 homogenizer. After homogenization, samples were rotated at 4° C. for 30 min for complete lysis, then the homogenate was centrifuged at 52,000 rpm for 20 min, and the resulting fractions were collected. Protein levels were quantified using the BCA kit (Pierce) with BSA standards and analyzed by immunoblot. Immunoblotting was performed with an antibody of interest and was performed with chemiluminescence (Pierce). The densitometric analyses of the bands were performed using ImageJ (NIH, http://rsb.info.nih.gov/ij/). Data are expressed as mean±S.E.M. The results were evaluated for statistical significance by applying the unpaired two-tailed Student's t-test or Student-Newman-Keuls. Differences were considered significant when p<0.05.

Compound: CC(C)C[C@@H](C=O)NC(=O)[C@H](CC(C)C)NC(=O)[C@H](CC(C)C)NC(=O)OCc1ccccc1 [MG132] (Cbz-Leu-Leu-Leu-aldehyde)
- PARIS steady state level: increased approximately two to three fold
- PARIS steady state level (listed as MG-132): increases PARIS steady state levels
- Parkin-mediated degradation of FLAG-PARIS (MYC-parkin to FLAG-PARIS 4 to 1, 10 μM MG-132): blocked
- Parkin-mediated degradation of FLAG-PARIS (MYC-parkin to FLAG-PARIS 4 to 1, 10 μM MG-132, listed as MG-132): prevents the degradation of FLAG-PARIS
